pEC50: −log10 of the molar value. Marks after values point to notes of the source that are not given here.
Experiments:
Format in all cases: cell-based, human
Rab9 promoter = assay: qHTS of Rab9 Promoter-Luciferase Reporter Gene Assay (firefly, Huh7); conditions: 24 hours
Procedure: qHTS of Rab9 Promoter-Luciferase Reporter Gene Assay. For the primary screen, a promoter assay was developed by engineering a vector using approximately 1.5 kb of the Rab9 promoter to drive the expression of the firefly luciferase reporter gene. Thus, Rab9 promoter activation results in luciferase expression. This vector was used to generate Huh7 cell lines stably expressing the Rab9-luciferase vector. […] Cells were plated for assays in OPTI-MEM I reduced-serum medium supplemented with 10% FBS at 1,500 cells/well in 5 μL in 1,536-well white opaque plates with 23 nL/well of test compound in DMSO solution. The assay plates were incubated at 37° C. for 24 hours, after which 3 μL/well BriteLite plus luciferase detection reagent mixture (Perkin Elmer) was added. Luminescence signal was measured in a ViewLux plate reader (Perkin Elmer) after a 10 minute incubation at room temperature.

NPC1 promoter [1] = assay: qHTS of NPC1 Promoter-Luciferase Reporter Gene Assay (firefly, Huh7); conditions: 24 hours
Procedure: qHTS of NPC1 Promoter-Luciferase Reporter Gene Assay. For the second primary screen, a promoter assay was developed by engineering a vector using approximately 1.5 kb of the NPC1 promoter to drive the expression of the firefly luciferase reporter gene. Thus, NPC1 promoter activation results in luciferase expression. This vector was used to generate Huh7 cell lines stably expressing the NPC1-luciferase vector. […] Cells were plated for assays in OPTI-MEM I reduced-serum medium supplemented with 10% FBS at 1,500 cells/well in 5 μL in 1,536-well white opaque plates with 23 nL/well of test compound in DMSO solution. The assay plates were incubated at 37° C. for 24 hours, after which 3 μL/well BriteLite plus luciferase detection reagent mixture (Perkin Elmer) was added. Luminescence signal was measured in a ViewLux plate reader (Perkin Elmer) after a 10 minute incubation at room temperature.

[2] = system: NPC1 patient cell fibroblasts; assay: Filipin Staining Assay to Detect Free Cholesterol Accumulation in NPC Cells; conditions: filipin fluorescence relative to untreated cells; for activity at 1 µM: Homo sapiens, Fibroblast, read-out: % storage at 1 μM
Procedure: Filipin Staining Assay to Detect Free Cholesterol Accumulation in NPC Cells. Compounds were evaluated for their effect on the NPC1 cellular phenotype by staining treated NPC1 patient cell fibroblasts with filipin, which recognizes free unesterified cholesterol. Compounds that upregulate the NPC1 promoter were expected to reduce the filipin staining in treated NPC1 fibroblasts compared to untreated NPC1 fibroblasts, indicating clearance of unesterified cholesterol. Conversely, inhibitors of the NPC1 promoter were expected to increase filipin staining in wild-type fibroblasts, thus indicating the emergence of an NPC-like phenotype. Briefly, cells were grown in lipoprotein-deficient medium for 3-4 days, and then the medium was replaced and supplemented with test compound plus 50 μg/mL low-density lipoprotein (LDL). After 24-48 hours, cells were stained with filipin and scored under the 40× magnification filter using the integrated morphometry function in the Metavue program (Molecular Devices). Test compounds that decreased the intensity of filipin fluorescence to less than 50% of untreated cells are considered of particular interest.

NPC1 promoter [3] = assay: Confirmation Assay of NPC1 Promoter Activators: Renilla Luciferase (Huh7); conditions: Homo sapiens, Huh-7, 24 hours; for Emax: read-out: NPC1-renilla Eff.
Procedure: Confirmation Assay of NPC1 Promoter Activators: Renilla Luciferase. The confirmation assay was carried out using an assay in which the NPC1 promoter drives the expression of a different luciferase protein from the one used in the primary screen. The NPC1 promoter was cloned in front of the renilla luciferase reporter gene. NPC1 promoter activation results in renilla luciferase expression. This vector was used to generate Huh7 cell lines stably expressing the NPC1-renilla luciferase vector. These cells were propagated and maintained in medium containing RPMI-1640 supplemented with 10% FBS, 2 mM L-glutamine, and 50 μg/mL penicillin/streptomycin. Cells were plated for assays in OPTI-MEM I reduced-serum medium supplemented with 10% FBS at 1,500 cells/well in 5 μL in 1,536-well white opaque plates and then 23 nL/well of compound in DMSO solution were added through pin transfer. The assay plates were incubated at 37° C. for 24 hours. The Amplite luciferase reporter gene assay kit was purchased from ABD Bioquest and prepared/stored according to manufacturer's recommendations. Luminescence signal was measured in a ViewLux plate reader (Perkin Elmer) after a 10 minute incubation at room temperature.

| Compound | pEC50 (Rab9 promoter) | Rab9 Eff. (Rab9 promoter) [%] | pEC50 (NPC1 promoter [1]) | NPC1 Eff. (NPC1 promoter [1]) | further results |
| --- | --- | --- | --- | --- | --- |
| CC(=O)c1c(C)[nH]c(C(=O)Nc2cccc(S(=O)(=O)N3CCCC3)c2)c1C [Example 3] | 5.11 | 149 | 5.21 | 112% | – |
| CC(=O)c1c(C)[nH]c(C(=O)Nc2cccc(S(=O)(=O)N3CCCCC3)c2)c1C [Example 4] | 5.77 | 134 | 5.57 | 163% | – |
| CN(C)S(=O)(=O)c1cccc(NC(=O)c2ccccc2C(F)(F)F)c1 [Example 16] | 5.85 | 155 | 5.92 | 125% | – |
| Cc1cccc(C)c1C(=O)Nc1cccc(S(=O)(=O)N(C)C)c1 [Example 17] | 5.26 | 131 | 5.27 | 127% | – |
| Cc1ccc(C(=O)Nc2cccc(S(=O)(=O)N(C)C)c2)c(C)c1 [Example 18] | 4.91 | 97 | 5.27 | 79% | – |
| CC(=O)c1c(C)[nH]c(C(=O)Nc2cccc(S(=O)(=O)Nc3cccc(C#N)c3)c2)c1C [Example 31] | – | – | – | – | NPC1 EC50 (NPC1 promoter [1]): Inactive; % storage at 1 μM [2]: 56% |
| COc1ccc(NC(=O)c2[nH]c(C)cc2C)cc1S(=O)(=O)Nc1ccc(Br)cc1 [Example 42] | – | – | – | – | pEC50 (NPC1 promoter [3]): 5.57; Emax (NPC1 promoter [3]): 119%; activity at 1 µM [2]: 47%; % storage at 0.1 μM [2]: 49% |
| COc1ccc(NC(=O)c2ccc[nH]2)cc1S(=O)(=O)Nc1ccc(Br)cc1 [Example 43] | – | – | – | – | pEC50 (NPC1 promoter [3]): 5.37; Emax (NPC1 promoter [3]): 88% |
| COc1ccc(NC(=O)c2c(C)c(C(C)=O)c(C)n2C)cc1S(=O)(=O)Nc1ccc(Br)cc1 [Example 44] | – | – | – | – | pEC50 (NPC1 promoter [3]): 6.30; Emax (NPC1 promoter [3]): 245% |
| COc1ccc(NC(=O)c2ccccc2)cc1S(=O)(=O)Nc1ccc(Br)cc1 [Example 45] | – | – | – | – | pEC50 (NPC1 promoter [3]): 5.96; Emax (NPC1 promoter [3]): 223%; activity at 1 µM [2]: 60% |
| COc1ccc(NC(=O)c2c(C)cccc2C)cc1S(=O)(=O)Nc1ccc(Br)cc1 [Example 46] | – | – | – | – | pEC50 (NPC1 promoter [3]): 5.96; Emax (NPC1 promoter [3]): 192%; activity at 1 µM [2]: 46%; % storage at 0.1 μM [2]: 26% |
| COc1ccc(NC(=O)c2cccnc2C)cc1S(=O)(=O)Nc1ccc(Br)cc1 [Example 49] | – | – | – | – | pEC50 (NPC1 promoter [3]): 5.26; Emax (NPC1 promoter [3]): 395%; activity at 1 µM [2]: 30% |
| COc1ccc(NC(=O)c2cccnc2)cc1S(=O)(=O)Nc1ccc(Br)cc1 [Example 51] | – | – | – | – | pEC50 (NPC1 promoter [3]): 5.57; Emax (NPC1 promoter [3]): 257%; activity at 1 µM [2]: 29% |
| COc1ccc(NC(=O)c2[nH]c(C)c(C(C)=O)c2C)cc1S(=O)(=O)C1CCCCCC1 [Example 53] | – | – | – | – | activity at 1 µM [2]: 24%; % storage at 0.1 μM [2]: 55% |
| CC(=O)c1c(C)[nH]c(C(=O)Nc2ccc(OCCCN(C)C)c(S(=O)(=O)Nc3ccc(Br)cc3)c2)c1C [Example 54] | – | – | – | – | % storage at 1 μM [2]: 60% |
| COc1ccc(NC(=O)c2ncc[nH]2)cc1S(=O)(=O)Nc1ccc(Br)cc1 [Example 55] | – | – | – | – | % storage at 1 μM [2]: 30% |
| COc1ccc(NC(=O)c2c[nH]cn2)cc1S(=O)(=O)Nc1ccc(Br)cc1 [Example 56] | – | – | – | – | % storage at 0.1 μM [2]: 50%; % storage at 1 μM [2]: 48% |
| COc1ccc(NC(=O)c2c[nH]c(-c3ccccc3)n2)cc1S(=O)(=O)Nc1ccc(Br)cc1 [Example 57] | – | – | – | – | % storage at 0.1 μM [2]: 70%; % storage at 1 μM [2]: 41% |
| COc1ccc(NC(=O)c2[nH]c(C)c(C(C)=O)c2C)cc1S(=O)(=O)Nc1ccc(Cl)cc1 [Example 58] | – | – | – | – | % storage at 1 μM [2]: 58% |
| COc1ccc(NC(=O)c2[nH]c(C)c(C(C)=O)c2C)cc1S(=O)(=O)C1CCc2ccccc2CC1 [Example 59] | – | – | – | – | activity at 1 µM [2]: 40% |

Second part, led by results:

| pEC50 (Rab9 promoter) | Rab9 Eff. (Rab9 promoter) [%] | pEC50 (NPC1 promoter [1]) | NPC1 Eff. (NPC1 promoter [1]) | Compound | further results |
| --- | --- | --- | --- | --- | --- |
| 5.06 | 181 | 5.11 | 155% | CCN(CC)S(=O)(=O)c1cccc(NC(=O)c2[nH]c(C)c(C(C)=O)c2C)c1 [Example 2] | – |
| 5.70 | 153 | 5.54 to 5.57 | 196-205% | CC(=O)c1c(C)[nH]c(C(=O)Nc2cccc(S(=O)(=O)N3CCCCCC3)c2)c1C [Example 5] | – |
| 4.96 | 82 | – | – | CC(=O)c1c(C)[nH]c(C(=O)Nc2cccc(S(=O)(=O)N3CCN(C)CC3)c2)c1C [Example 6] | NPC1 EC50 (NPC1 promoter [1]): Inactive |
| 4.91 | 122 | 5.08 | 84% | CC(=O)c1c(C)[nH]c(C(=O)Nc2cccc(S(=O)(=O)N3CCOCC3)c2)c1C [Example 7] | – |
| 4.41 | 82 | 4.76 | 48% | Cc1cc(C)c(C(=O)Nc2cccc(S(=O)(=O)N(C)C)c2)[nH]1 [Example 8] | – |
| – | – | 5.07 | 47% | CCc1c(C)[nH]c(C(=O)Nc2cccc(S(=O)(=O)N(C)C)c2)c1C [Example 9] | Rab9 EC50 (Rab9 promoter): Inactive |
| – | – | 4.67 | 83% | CC(=O)c1c(C)c(C(=O)Nc2cccc(S(=O)(=O)N(C)C)c2)n(C)c1C [Example 10] | Rab9 EC50 (Rab9 promoter): Inactive |
| 5.16 | 54 | – | – | Cc1ccc(C(=O)Nc2cccc(S(=O)(=O)N(C)C)c2)cc1 [Example 13] | NPC1 EC50 (NPC1 promoter [1]): Inactive |
| 4.76 | 114 | 5.32 | 51% | Cc1ccccc1C(=O)Nc1cccc(S(=O)(=O)N(C)C)c1 [Example 14] | – |
| 4.71 | 75 | 5.21 | 81% | Cc1cccc(C(=O)Nc2cccc(S(=O)(=O)N(C)C)c2)c1 [Example 15] | – |
| 4.71 | 94 | 5.07 | 40% | CC(=O)c1cccc(C(=O)Nc2cccc(S(=O)(=O)N(C)C)c2)c1 [Example 19] | – |
| 4.96 | 110 | – | – | CC(=O)c1ccc(C(=O)Nc2cccc(S(=O)(=O)N(C)C)c2)cc1 [Example 20] | NPC1 EC50 (NPC1 promoter [1]): Inactive |
| – | – | 4.81 | 71^a % | CC(=O)c1c(C)[nH]c(C(=O)Nc2cccc(S(=O)(=O)Nc3ccc(Br)c(F)c3)c2)c1C [Example 23] | – |
| – | – | 5.37 | 80% | CC(=O)c1c(C)[nH]c(C(=O)Nc2cccc(S(=O)(=O)Nc3ccc(Br)cc3)c2)c1C [Example 32] | – |
| – | – | 5.57 | 140% | CCc1ccc(NC(=O)c2[nH]c(C)c(C(C)=O)c2C)cc1S(=O)(=O)Nc1cccc(C#N)c1 [Example 33] | % storage at 0.1 μM [2]: 43%; % storage at 1 μM [2]: 35% |
| – | – | 5.77 | 248% | CC(=O)c1c(C)[nH]c(C(=O)Nc2ccc(C)c(S(=O)(=O)Nc3ccc(Br)cc3)c2)c1C [Example 34] | – |
| – | – | 6.15 | 208% | CCc1ccc(NC(=O)c2[nH]c(C)c(C(C)=O)c2C)cc1S(=O)(=O)Nc1ccc(Br)cc1 [Example 35] | – |
| – | – | 5.47 | 259% | CCc1ccc(NC(=O)c2[nH]c(C)c(C(C)=O)c2C)cc1S(=O)(=O)Nc1ccc(C#N)cc1 [Example 38] | % storage at 1 μM [2]: 62% |
| – | – | 6.05 | 129% | COc1ccc(NC(=O)c2[nH]c(C)c(C(C)=O)c2C)cc1S(=O)(=O)Nc1cccc(C#N)c1 [Example 40] | % storage at 1 μM [2]: 29% |
| – | – | 5.06 | 100% | COc1ccc(NC(=O)c2[nH]c(C)c(C(C)=O)c2C)cc1S(=O)(=O)Nc1ccc(C#N)cc1 [Example 41] | % storage at 1 μM [2]: 58% |

— US10239830B2, “Benzenesulfonamide upregulators of NPC1 for Neimann-Pick disease and other lysosomal storage disorders” (ICAHN SCHOOL OF MEDICINE AT MOUNT SINAI, priority 2015, dated 2019)
